Data taken from CN103739564A, “缬沙坦的多晶型及其制备方法” (Shanghai Institute of Materia Medica of CAS, priority 2012, dated 2013).

Experiment: Hygroscopicity analysis (DVS) of the valsartan crystal forms
Assay type: physicochemical
Conditions: new crystal forms; result in words only; DVS comparison (Figure 11) not in text

Compound: CCCCC(=O)N(Cc1ccc(-c2ccccc2-c2nnn[nH]2)cc1)[C@H](C(=O)O)C(C)C [晶型E, (S)-N-(1-戊酰基)-N-[[2’-(1H-四唑-5-基)[1,1’-联苯]-4-基]甲基]-L-缬氨酸]
- hygroscopicity: 吸湿性小
